Ends that are not written are not given here.
Assays:
antibodies to HTLV-III [1] = format: binding, human; conditions: screened out from over 500 HTLV III positive AIDS serum specimens
Method: Following the procedure described in Example 1, mixtures of the 21mer peptide with the 19mer peptide with various weight ratios, from 10:1.25 to 4:1, were used as the immunoadsorbent. The wells were coated with 1 ug of the mixture. The serum samples used were two samples from patients which had been diagnosed as positive for AIDS and two samples from patients with autoimmune diseases. The two AIDS positive samples were screened out from over 500 HTLV III positive AIDS serum specimens and had been showned to be negative in ELISA using only the 21mer peptide as the immunoadsorbent.

anti HTLV-III antibodies = assay: Immunoreactivity of peptides at 1 ug per well in ELISA with pooled AIDS serum, relative to 21mer peptide; format: binding, human; conditions: for Reactivity %: 1 ug per well, pooled AIDS serum sample, 21mer peptide set as 100%
Description: Various peptide analogs based on the above described amino acid sequence have been prepared. These analogs and their reactivities with the anti HTLV-III antibodies present in sera of AIDS and ARC patients are described in Example 8 and Table III. The reactivity in an ELISA test for the same amount of each peptide by weight per volume was compared with the reactivity of the 21mer peptide, which was assigned a reactivity of 100.
The 35mer peptide, 19mer peptide, 11mer peptide and eight analogues of the 21mer peptide, and overlapping 19mer peptide were prepared in their amide form according to the classical Merrifield method described herein above.
The immunoreactivity of the various peptides at 1 ug per well level was tested using a pooled AIDS serum sample. The reactivity of each peptide was compared with the reactivity of the 21mer peptide which was set as 100%.

antibodies to HTLV-III [2] = test system: antibodies to HTLV-III
Description: A third problem which has plagued this area is the possibility of false negative results.
where A492 (RC) is the absorbance reading for the reactive control and A492 (NRC) is the absorbance reading for the non-reactive control.

antibodies to HTLV-III [3] = conditions: cited from earlier work

Substance	ELISA result of the two AIDS positive samples (antibodies to HTLV-III [1])	Reactivity % (anti HTLV-III antibodies) [%]	serum samples positive by Western Blot Analysis giving negative results (antibodies to HTLV-III [2]; 12 out of 449)	accuracy of the results (antibodies to HTLV-III [2]; cutoff point=0.1xA492 (RC)+1xA492 (NRC))	serum samples positive by Western Blot Analysis giving negative results, out of 449 (antibodies to HTLV-III [2]; mostly at the later stage of AIDS)	immunoreactivity (in words) (anti HTLV-III antibodies; observed from Table III)	immunoreactivity (in words) (antibodies to HTLV-III [3])
Arg--Ile--Leu--Ala--Val--Glu--Arg--Tyr--Leu--Lys--Asp--Gln--Gln--Leu--Leu--Gly--Ile--Trp--Gly--Cys--Ser [Peptide 6]	negative	100	about 2.67%	about 98%	12	–	–
RILAVERYKLDQQLLGIWGCSGKLICTTAVPWNAS (cysteine pairing not given here) [Peptide 17]	–	132.0	–	–	–	highest immunoreactivity	–
Arg-Ile-Leu-Ala-Val-Glu-Arg-Tyr-Leu-Lys-Asp-Gln-Gln-Leu--Leu-Gly-Ile-Trp-Gly-Cys-Ser-Gly-Lys-Leu-Ile-Cys-X	–	–	–	–	–	–	not as good as the deactivated virus

Reference: patent publication US4879212A, “Peptide composition and method for the detection of antibodies to HTLV-III” (United Biomedical Inc., priority 1987, dated 1989)
